Data reported in patent publication US20220257557A1, “PHARMACEUTICAL COMPOSITION FOR PREVENTING OR TREATING NEUROLOGICAL DISEASES” (GLACEUM INC., priority 2019, published 2022).

Legend:
[1] = target: T1, rePON1 (PON1, paraoxonase 1) (Homo sapiens, UniProt P27169); assay: Prevention of inhibition of PON1 activity by oxidized linolenic acid (TBBL substrate); assay type: biochemical; conditions: result in words
T1 construct: purchased Thermo Corp. RP-75678
Method in brief: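 Recombinant PON1 preincubated 30 min at room temperature with compound (30 μM) in 50 mM Tris-HCl/1 mM CaCl2, then exposed to oxidized linolenic acid for 2 h. Activity read with TBBL and DTNB at 420 nm, 37 °C, every 2 min for 1 h, expressed relative to uninhibited PON1.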

BV2 cells [2] = assay: iNOS and COX-2 expression after LPS (Western blot); assay type: cell-based; conditions: 3 h pretreatment (Table 3 amounts), LPS 1 μg/ml 24 h
Method in brief: (§1)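 RAW264.7 or BV2 cells (5×10^5 cells/well) in DMEM with 10% FBS were pretreated with compound, then stimulated with 1 μg/ml LPS for 24 h. iNOS and COX-2 expression by Western blot; NO and PGE2 production measured. Compound toxicity checked by MTT.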

RAW264.7 cells [3] = assay: iNOS and COX-2 expression after LPS (Western blot); assay type: cell-based; conditions: 3 h pretreatment (Table 3 amounts), LPS 1 μg/ml 24 h
Method in brief: as §1

BV2 cells [4] = assay: NO and PGE2 production after LPS; assay type: cell-based; conditions: 3 h pretreatment (Table 3 amounts), LPS 1 μg/ml 24 h
Method in brief: as §1

RAW264.7 cells [5] = assay: NO and PGE2 production after LPS; assay type: cell-based; conditions: 3 h pretreatment (Table 3 amounts), LPS 1 μg/ml 24 h
Method in brief: as §1

BV2 cells [6] = assay: IL-1β, IL-6 and TNF-α mRNA expression after LPS (RT-PCR); assay type: cell-based; conditions: 3 h pretreatment (Table 3 amounts), LPS 1 μg/ml 6 h
Method in brief: (§2)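 Cells pretreated with test compounds (cytotoxicity checked by MTT), then stimulated with 1 μg/ml LPS for 6 h. IL-1β, IL-6 and TNF-α mRNA levels measured by RT-PCR.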

RAW264.7 cells [7] = assay: as above; assay type: cell-based; conditions: 3 h pretreatment (Table 3 amounts), LPS 1 μg/ml 6 h
Method in brief: as §2

RAW264.7 cells [8] = assay: Transcription of NF-κB protein (p65, p50) into nucleus after LPS (Western blot); assay type: cell-based; conditions: 3 h pretreatment (Table 3 amounts), LPS 1 μg/ml 1 h
Method in brief: (§3)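 Cells (5×10^5/well) cultured in DMEM with 10% FBS at 37° C, 5% CO2, pretreated with compound, then stimulated with 1 μg/ml LPS for 1 hour. Nuclear levels of p65 and p50 measured by Western blot.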

BV2 cells [9] = assay: as above; assay type: cell-based; conditions: 3 h pretreatment (Table 3 amounts), LPS 1 μg/ml 1 h
Method in brief: as §3

T1 sequence (P27169 whole entry): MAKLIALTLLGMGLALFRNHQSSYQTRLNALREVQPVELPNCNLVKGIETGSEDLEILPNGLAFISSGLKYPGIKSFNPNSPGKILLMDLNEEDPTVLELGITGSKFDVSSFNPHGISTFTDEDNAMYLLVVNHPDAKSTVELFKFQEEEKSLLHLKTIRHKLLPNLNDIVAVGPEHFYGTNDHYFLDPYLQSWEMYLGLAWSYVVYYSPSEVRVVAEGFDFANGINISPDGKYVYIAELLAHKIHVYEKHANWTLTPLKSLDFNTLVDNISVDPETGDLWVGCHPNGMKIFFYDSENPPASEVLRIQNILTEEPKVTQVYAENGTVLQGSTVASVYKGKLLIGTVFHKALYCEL

Question: Which results are given for `CCc1ccc(C2COc3c(ccc4c3CCC(C)(C)O4)C2)c(O)c1` (centres unmarked) [Formula III-3, 2-(8,8-dimethyl-2,3,4,8,9,10-hexahydropyrano[2,3-f]chromen-3-yl)-5-ethylphenol]?
Answer: extent to which inhibition of rePON1 activity was prevented, compared with glabridin ([1]; compound 30 μM vs glabridin 30 μM): greater; inhibition of rePON1 activity by oxidized linolenic acid ([1]; compound 30 μM): prevented; expression level of COX-2 (BV2 cells [2]): concentration-dependently decreased; expression level of iNOS (BV2 cells [2]): concentration-dependently decreased; expression level of COX-2 (RAW264.7 cells [3]): concentration-dependently decreased; expression level of iNOS (RAW264.7 cells [3]): concentration-dependently decreased; production of NO (BV2 cells [4]): concentration-dependently decreased; production of PGE2 (BV2 cells [4]): concentration-dependently decreased; production of NO (RAW264.7 cells [5]): concentration-dependently decreased; production of PGE2 (RAW264.7 cells [5]): concentration-dependently decreased; mRNA expression level of IL-1β (BV2 cells [6]): concentration-dependently decreased; mRNA expression level of IL-6 (BV2 cells [6]): concentration-dependently decreased; mRNA expression level of TNF-α (BV2 cells [6]): concentration-dependently decreased; mRNA expression level of IL-1β (RAW264.7 cells [7]): concentration-dependently decreased; mRNA expression level of IL-6 (RAW264.7 cells [7]): concentration-dependently decreased; mRNA expression level of TNF-α (RAW264.7 cells [7]): concentration-dependently decreased; level of transcription of NF-κB protein into the nucleus, p50 (RAW264.7 cells [8]): concentration-dependently decreased; level of transcription of NF-κB protein into the nucleus, p65 (RAW264.7 cells [8]): concentration-dependently decreased; level of transcription of NF-κB protein into the nucleus, p50 (BV2 cells [9]): concentration-dependently decreased; level of transcription of NF-κB protein into the nucleus, p65 (BV2 cells [9]): concentration-dependently decreased
